The target of test [1] is T1, Adrenergic β2 (H292 cells) (Homo sapiens, UniProt P07550).
T1 construct: endogenous in cells; host or cells: H292 cells
The test can be described thus: Adrenergic β2 Mediated cAMP Production, single concentration 1 μM. Particulars: NCI-H292, 1 μM compound, percentage of the maximum response generated by 1E-07M formoterol, read-out: β2 (% effect at 1 μM). The class given is cell-based. The method in brief:
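H292 cells were plated overnight, pre-treated with 300 μM rolipram for 10 min, then exposed to compound at 1 μM final (1% DMSO) for 60 min at room temperature. cAMP in the lysates was measured by AlphaScreen against a standard curve and expressed as % of the maximal response to 1E-07M formoterol.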

For test [2], the target named is T2, human muscarinic acetylcholine M3 receptor (M3-ACh) (Homo sapiens, UniProt P20309).
T2 construct: expressed in transfected cells; host or cells: CHO-K1 (Chinese Hamster Ovary) cell membranes
The test is described as follows: Muscarinic 3 Receptor Binding Assay, % inhibition specific binding at 1 μM. The conditions noted are these: 1 μM compound, % inhibition specific [3H]-NMS binding. The method in brief:
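Competition binding of 0.1 nM [3H]NMS to membranes from CHO-K1 cells expressing human M3, SPA format, with compound at 1 μM in 20 mM HEPES pH 7.4, 5 mM MgCl2, 1% DMSO. Incubated 16 h at room temperature; non-specific binding defined by 1 μM atropine; value is % inhibition of specific binding.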

T1 sequence (P07550 whole entry): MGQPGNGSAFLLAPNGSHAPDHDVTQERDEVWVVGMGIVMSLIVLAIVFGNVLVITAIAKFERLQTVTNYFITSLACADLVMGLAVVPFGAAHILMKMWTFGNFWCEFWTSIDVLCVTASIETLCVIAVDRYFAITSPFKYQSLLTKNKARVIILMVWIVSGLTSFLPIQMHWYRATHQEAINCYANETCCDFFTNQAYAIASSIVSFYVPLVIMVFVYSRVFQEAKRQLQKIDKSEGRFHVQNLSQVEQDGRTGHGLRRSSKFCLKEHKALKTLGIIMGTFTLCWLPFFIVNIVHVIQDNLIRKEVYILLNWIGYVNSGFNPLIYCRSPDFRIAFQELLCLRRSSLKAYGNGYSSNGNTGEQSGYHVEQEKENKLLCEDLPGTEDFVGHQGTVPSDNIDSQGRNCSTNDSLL
T2 sequence (P20309 whole entry): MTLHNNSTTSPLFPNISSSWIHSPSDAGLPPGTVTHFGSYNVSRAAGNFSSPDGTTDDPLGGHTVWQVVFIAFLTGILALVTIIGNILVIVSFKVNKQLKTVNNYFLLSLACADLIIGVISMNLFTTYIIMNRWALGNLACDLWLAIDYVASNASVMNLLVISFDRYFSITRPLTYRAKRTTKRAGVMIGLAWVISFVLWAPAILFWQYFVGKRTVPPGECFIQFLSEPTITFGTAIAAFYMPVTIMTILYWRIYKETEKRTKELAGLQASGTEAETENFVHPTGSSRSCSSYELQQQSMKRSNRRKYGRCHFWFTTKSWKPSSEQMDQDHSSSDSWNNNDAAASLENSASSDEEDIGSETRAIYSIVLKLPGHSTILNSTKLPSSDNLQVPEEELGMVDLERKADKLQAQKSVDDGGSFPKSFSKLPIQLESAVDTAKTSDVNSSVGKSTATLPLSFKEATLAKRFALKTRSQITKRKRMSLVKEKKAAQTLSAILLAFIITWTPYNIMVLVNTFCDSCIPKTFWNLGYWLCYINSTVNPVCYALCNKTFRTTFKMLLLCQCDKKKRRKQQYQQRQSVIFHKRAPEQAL

For `Cn1cccc1C(=O)N1CCOC2(CCN(CCCCCCCCCNC[C@H](O)c3ccc(O)c4[nH]c(=O)sc34)CC2)C1` [Example 184, (R)-4-hydroxy-7-(1-hydroxy-2-(9-(4-(1-methyl-1H-pyrrole-2-carbonyl)-1-oxa-4,9-diazaspiro[5.5]undecan-9-yl)nonylamino)ethyl)benzo[d]thiazol-2(3H)-one], the activation at 1 µM in test [1] is 89%. The compound also yielded an inhibition at 1 µM in test [2] of 96%.
For `Cc1nc(C)c(CC(=O)N2CCOC3(CCN(CCCCCCCCCNC[C@H](O)c4ccc(O)c5[nH]c(=O)sc45)CC3)C2)s1` [Example 211, (R)-7-(2-(9-(4-(2-(2,4-dimethylthiazol-5-yl)acetyl)-1-oxa-4,9-diazaspiro[5.5]undecan-9-yl)nonylamino)-1-hydroxyethyl)-4-hydroxybenzo[d]thiazol-2(3H)-one], in that order: 91% and 68%.
For `Cc1ccsc1C(=O)N1CCOC2(CCN(CCOc3ccc(CNC[C@H](O)c4ccc(O)c5[nH]c(=O)sc45)cc3)CC2)C1` [Example 232, (R)-4-hydroxy-7-(1-hydroxy-2-(4-(2-(4-(3-methylthiophene-2-carbonyl)-1-oxa-4,9-diazaspiro[5.5]undecan-9-yl)ethoxy)benzylamino)ethyl) benzo[d]thiazol-2(3H)-one], in that order: 83% and 56%.
Taken in the same sequence, the figures for `O=C(CCCc1cccs1)N1CCOC2(CCN(CCOc3ccc(CNC[C@H](O)c4ccc(O)c5[nH]c(=O)sc45)cc3)CC2)C1` [Example 224, (R)-4-hydroxy-7-(1-hydroxy-2-(4-(2-(4-(4-(thiophen-2-yl)butanoyl)-1-oxa-4,9-diazaspiro[5.5]undecan-9-yl)ethoxy)benzylamino)ethyl) benzo[d]thiazol-2(3H)-one] were 89% and 70%.
Turning to `Cc1cccc2nc(C(=O)N3CCOC4(CCN(Cc5cc(F)cc(CCNC[C@H](O)c6ccc(O)c7[nH]c(=O)sc67)c5)CC4)C3)cn12` [Example 133, (R)-7-(2-(3-fluoro-5-((4-(5-methylimidazo[1,2-a]pyridine-2-carbonyl)-1-oxa-4,9-diazaspiro[5.5]undecan-9-yl)methyl)phenethylamino)-1-hydroxyethyl)-4-hydroxybenzo[d]thiazol-2(3H)-one], in test [1], the activation at 1 µM amounted to 110%. Besides, 1 µM produced 56% inhibition in test [2].
For `O=C([C@@H]1CCCO1)N1CCOC2(CCN(Cc3cc(F)cc(CCNC[C@H](O)c4ccc(O)c5[nH]c(=O)sc45)c3)CC2)C1` [Example 158, 7-((R)-2-(3-fluoro-5-((4-((S)-tetrahydrofuran-2-carbonyl)-1-oxa-4,9-diazaspiro[5.5]undecan-9-yl)methyl)phenethylamino)-1-hydroxyethyl)-4-hydroxybenzo[d]thiazol-2(3H)-one], in that order: 95% and 72%.
For `Cc1noc(C)c1CC(=O)N1CCOC2(CCN(Cc3cc(F)cc(CCNC[C@H](O)c4ccc(O)c5[nH]c(=O)sc45)c3)CC2)C1` [Example 167, (R)-7-(2-(3-((4-(2-(3,5-dimethylisoxazol-4-yl)acetyl)-1-oxa-4,9-diazaspiro[5.5]undecan-9-yl)methyl)-5-fluorophenethylamino)-1-hydroxyethyl)-4-hydroxybenzo[d]thiazol-2(3H)-one], in that order: 100% and 8%.
For `CC(C)(C)c1nc(C(=O)N2CCOC3(CCN(CCOc4ccc(CNC[C@H](O)c5ccc(O)c6[nH]c(=O)sc56)cc4)CC3)C2)cs1` [Example 257, (R)-7-(2-(4-(2-(4-(2-tert-butylthiazole-4-carbonyl)-1-oxa-4,9-diazaspiro[5.5]undecan-9-yl)ethoxy)benzylamino)-1-hydroxyethyl)-4-hydroxy-benzo[d]thiazol-2(3H)-one], in that order: 56% and 36%.
With `O=C(c1ccc2occc2c1)N1CCOC2(CCN(CCOc3ccc(CNC[C@H](O)c4ccc(O)c5[nH]c(=O)sc45)cc3)CC2)C1` [Example 250, (R)-7-(2-(4-(2-(4-(benzofuran-5-carbonyl)-1-oxa-4,9-diazaspiro[5.5]undecan-9-yl)ethoxy)benzylamino)-1-hydroxyethyl)-4-hydroxybenzo[d]thiazol-2(3H)-one], the activation at 1 µM in test [1] was 77%. Also, in test [2], 1 µM produced 91% inhibition.
Taken in the same sequence, the figures for `Cn1c(C(=O)N2CCOC3(CCN(Cc4cc(F)cc(CCNC[C@H](O)c5ccc(O)c6[nH]c(=O)sc56)c4)CC3)C2)cc2ccccc21` [Example 139, (R)-7-(2-(3-fluoro-5-((4-(1-methyl-1H-indole-2-carbonyl)-1-oxa-4,9-diazaspiro[5.5]undecan-9-yl)methyl)phenethylamino)-1-hydroxyethyl)-4-hydroxybenzo[d]thiazol-2(3H)-one] were 101% and 34%.
For `O=C(CCOc1ccccc1)N1CCOC2(CCN(CCOc3ccc(CNC[C@H](O)c4ccc(O)c5[nH]c(=O)sc45)cc3)CC2)C1` [Example 247, (R)-4-hydroxy-7-(1-hydroxy-2-(4-(2-(4-(3-phenoxypropanoyl)-1-oxa-4,9-diazaspiro[5.5]undecan-9-yl)ethoxy)benzylamino)ethyl) benzo[d]thiazol-2(3H)-one], in that order: 75% and 60%.
Taken in the same sequence, the figures for `O=C(COCCc1ccccc1)N1CCOC2(CCN(Cc3cc(F)cc(CCNC[C@H](O)c4ccc(O)c5[nH]c(=O)sc45)c3)CC2)C1` [Example 174, (R)-7-(2-(3-fluoro-5-((4-(2-phenethoxyacetyl)-1-oxa-4,9-diazaspiro[5.5]undecan-9-yl)methyl)phenethylamino)-1-hydroxyethyl)-4-hydroxybenzo[d]thiazol-2(3H)-one] were 89% and 41%.
Turning to `O=C(c1cccc2[nH]ccc12)N1CCOC2(CCN(Cc3cc(F)cc(CCNC[C@H](O)c4ccc(O)c5[nH]c(=O)sc45)c3)CC2)C1` [Example 165, (R)-7-(2-(3-((4-(1H-indole-4-carbonyl)-1-oxa-4,9-diazaspiro[5.5]undecan-9-yl)methyl)-5-fluorophenethylamino)-1-hydroxyethyl)-4-hydroxybenzo[d]thiazol-2(3H)-one], the activation at 1 µM in test [1] is 89%. This compound also yielded an inhibition at 1 µM in test [2] of 11%.
Taken in the same sequence, the figures for `CCCc1nc(C(=O)N2CCOC3(CCN(CCOc4ccc(CNC[C@H](O)c5ccc(O)c6[nH]c(=O)sc56)cc4)CC3)C2)cs1` [Example 260, (R)-4-hydroxy-7-(1-hydroxy-2-(4-(2-(4-(2-propylthiazole-4-carbonyl)-1-oxa-4,9-diazaspiro[5.5]undecan-9-yl)ethoxy)benzylamino)ethyl) benzo[d]thiazol-2(3H)-one] were 56% and 93%.
For `O=C(c1ccnn1-c1ccccc1)N1CCOC2(CCN(Cc3cc(F)cc(CCNC[C@H](O)c4ccc(O)c5[nH]c(=O)sc45)c3)CC2)C1` [Example 160, (R)-7-(2-(3-fluoro-5-((4-(1-phenyl-1H-pyrazole-5-carbonyl)-1-oxa-4,9-diazaspiro[5.5]undecan-9-yl)methyl)phenethylamino)-1-hydroxyethyl)-4-hydroxybenzo[d]thiazol-2(3H)-one], in that order: 91% and 5%.

For the origin of these results see patent US8148373B2, “Compounds” (AstraZeneca AB, priority 2008, dated 2012).
